Measurements as given in patent publication US10167262B2, “Herbicidal substituted 3-arylpyrazoles” (FMC CORPORATION, priority 2014, dated 2019).

Columns and labels:
Assay type in all cases: in vivo
[1] = system: waterhemp (common waterhemp, Amaranthus rudis); test: Test C pre-/postemergence greenhouse test, plant response rating 0-100
In short: (§1)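 Visual 0–100 control scores, taken 13 to 15 days post-application in a greenhouse, reflect treatment preemergence (seed in loam soil with sand) or postemergence (2–18 cm plants in peat moss, vermiculite medium). A dash marks no result.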

[2] = system: barnyardgrass (Echinochloa crus-galli); test: as above
In short: as §1

[3] = system: oilseed rape (Brassica napus); test: as above
In short: as §1

[4] = system: waterhemp_RES2, (ALS & HPPD resistant common waterhemp, Amaranthus rudis); test: Test E postemergence greenhouse test, plant response rating 0-100; settings: scale 0 to 100
In short: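 Visual ratings, 0 (no effect) to 100 (complete control), made versus controls 14–21 days after postemergence application in the greenhouse. Plants were at 1- to 4-leaf stage (2–18 cm) in peat moss/vermiculite potting medium.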

rice (Oryza sativa) = test: Test B flooded paddy test, plant response rating 0-100; settings: Flood, 250 g ai/ha; scale 0 to 100 (0 no effect, 100 complete control); 13 to 15 days
In short: (§2)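 Pots were flooded to 3 cm above the soil surface at treatment, compound applied directly to the paddy water, and that depth held throughout. Plants were kept in a greenhouse for 13 to 15 days, then visually rated against untreated controls.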

[5] = system: ducksalad (Heteranthera limosa); test: as above; settings: Flood, 250 g ai/ha; scale 0 to 100 (0 no effect, 100 complete control); 13 to 15 days
In short: as §2

[6] = system: sedge, umbrella (small-flower umbrella sedge, Cyperus difformis); test: as above; settings: Flood, 250 g ai/ha; scale 0 to 100 (0 no effect, 100 complete control); 13 to 15 days
In short: as §2

[7] = system: barnyardgrass (Echinochloa crus-galli); test: as above; settings: Flood, 250 g ai/ha; scale 0 to 100 (0 no effect, 100 complete control); 13 to 15 days
In short: as §2

[8] = Postemergence, 250 g ai/ha, scale 0 to 100
[9] = Postemergence, 500 g ai/ha, scale 0 to 100
[10] = Postemergence, 125 g ai/ha, scale 0 to 100

Structure (SMILES) | Plant response rating (0 to 100), Waterhemp ([1]; Postemergence, 62 g ai/ha) | Plant response rating (0 to 100), Waterhemp ([1]; Postemergence, 125 g ai/ha) | Plant response rating, Waterhemp [1, 8] | Plant response rating, Waterhemp [1, 9] | Plant response rating, Waterhemp ([1]; Preemergence, 62 g ai/ha) | Plant response rating, Waterhemp ([1]; Preemergence, 125 g ai/ha) | Plant response rating, Waterhemp ([1]; Preemergence, 250 g ai/ha) | Plant response rating (0 to 100), Barnyardgrass ([2]; Postemergence, 62 g ai/ha) | Plant response rating, Barnyardgrass [2, 10] | Plant response rating, Barnyardgrass [2, 8] | Plant response rating, Barnyardgrass [2, 9] | Plant response rating, Barnyardgrass ([2]; Preemergence, 62 g ai/ha) | Plant response rating, Barnyardgrass ([2]; Preemergence, 125 g ai/ha) | Plant response rating, Barnyardgrass ([2]; Preemergence, 250 g ai/ha) | Plant response rating (0 to 100), Oilseed Rape ([3]; Postemergence, 62 g ai/ha) | Plant response rating (0 to 100), Oilseed Rape ([3]; Postemergence, 125 g ai/ha) | Plant response rating, Oilseed Rape [3, 8] | Plant response rating, Oilseed Rape [3, 9] | Plant response rating, Oilseed Rape ([3]; Preemergence, 62 g ai/ha) | Plant response rating, Oilseed Rape ([3]; Preemergence, 125 g ai/ha) | other results
O=C(c1ccccc1)c1cn(S(=O)(=O)CC(F)(F)F)nc1-c1cc(Cl)cc(Cl)c1 [Compound 3] | 90 | 90 | 90 | 95 | 100 | 100 | 100 | 0 | 0 | 5 | 10 | 0 | 0 | 0 | 60 | 70 | 80 | 85 | 40 | 80 | Plant response rating, Waterhemp ([1]; Preemergence, 500 g ai/ha): 100; Plant response rating, Waterhemp ([1]; Preemergence, 0 to 100 scale (0 no effect, 100 complete control), rate 500 g ai/ha): 100; Plant response rating, Barnyardgrass ([2]; Preemergence, 500 g ai/ha): 0; Plant response rating, Oilseed Rape ([3]; Preemergence, 250 g ai/ha): 80; Plant response rating, Oilseed Rape ([3]; Preemergence, 500 g ai/ha): 100; Plant response rating, Waterhemp_RES2 ([4]; 31 g ai/ha): 60; Plant response rating, Waterhemp_RES2 ([4]; 62 g ai/ha): 80; Plant response rating, Waterhemp_RES2 ([4]; 125 g ai/ha): 70; Plant response rating, Waterhemp_RES2 ([4]; 250 g ai/ha): 95; Plant response rating, Waterhemp_RES2 ([4]; 500 g ai/ha): 95; Plant response rating, Rice (rice (Oryza sativa)): 0; Plant response rating, Ducksalad [5]: 0; Plant response rating, Sedge, Umbrella [6]: 0; Plant response rating, Barnyardgrass [7]: 0
COC(OC)(c1ccccc1)c1c[nH]nc1-c1cc(Cl)cc(Cl)c1 [Compound 13, 3-(3,5-dichlorophenyl)-4-(dimethoxyphenylmethyl)-1H-pyrazole] | 100 | 100 | 100 | 100 | 100 | 100 | 100 | 0 | 0 | 0 | 0 | 0 | 0 | 0 | 40 | 55 | 50 | 70 | 50 | 20 | Plant response rating, Waterhemp ([1]; Preemergence, 500 g ai/ha): 100; Plant response rating, Barnyardgrass ([2]; Preemergence, 500 g ai/ha): 0; Plant response rating, Oilseed Rape ([3]; Preemergence, 250 g ai/ha): 30; Plant response rating, Oilseed Rape ([3]; Preemergence, 500 g ai/ha): 98; Plant response rating, Waterhemp_RES2 ([4]; 125 g ai/ha): 75; Plant response rating, Waterhemp_RES2 ([4]; 500 g ai/ha): 95; Plant response rating, Rice (rice (Oryza sativa)): 0; Plant response rating, Ducksalad [5]: 0; Plant response rating, Sedge, Umbrella [6]: 0; Plant response rating, Barnyardgrass [7]: 0
CCOC(OCC)(c1ccccc1)c1c[nH]nc1-c1cc(Cl)cc(Cl)c1 [Compound 14, 3-(3,5-dichlorophenyl)-4-(diethoxyphenylmethyl)-1H-pyrazole] | 100 | 95 | 100 | 100 | 100 | 100 | 100 | 0 | 0 | 0 | 0 | 0 | 0 | 0 | 80 | 70 | 95 | 90 | 50 | 90 | Plant response rating, Waterhemp ([1]; Preemergence, 500 g ai/ha): 100; Plant response rating, Barnyardgrass ([2]; Preemergence, 500 g ai/ha): 0; Plant response rating, Oilseed Rape ([3]; Preemergence, 250 g ai/ha): 85; Plant response rating, Oilseed Rape ([3]; Preemergence, 500 g ai/ha): 85; Plant response rating, Waterhemp_RES2 ([4]; 31 g ai/ha): 75; Plant response rating, Waterhemp_RES2 ([4]; 62 g ai/ha): 85; Plant response rating, Waterhemp_RES2 ([4]; 125 g ai/ha): 90; Plant response rating, Waterhemp_RES2 ([4]; 250 g ai/ha): 95; Plant response rating, Waterhemp_RES2 ([4]; 500 g ai/ha): 95; Plant response rating, Rice (rice (Oryza sativa)): 0; Plant response rating, Ducksalad [5]: 0; Plant response rating, Sedge, Umbrella [6]: 0; Plant response rating, Barnyardgrass [7]: 0
O=C(c1ccccc1)c1cn(CO)nc1-c1cc(Cl)cc(Cl)c1 [Compound 15, [3-(3,5-dichlorophenyl)-1-(hydroxymethyl)-1H-pyrazol-4-yl]phenylmethanone] | 65 | 95 | 100 | 100 | 100 | 100 | 100 | 0 | 0 | 0 | 0 | 0 | 0 | 0 | 60 | 90 | 90 | 90 | 50 | 50 | Plant response rating, Barnyardgrass ([2]; Preemergence, 31 g ai/ha): 0; Plant response rating, Oilseed Rape ([3]; Preemergence, 31 g ai/ha): 0; Plant response rating, Oilseed Rape ([3]; Preemergence, 250 g ai/ha): 80; Plant response rating, Waterhemp_RES2 ([4]; 31 g ai/ha): 60; Plant response rating, Waterhemp_RES2 ([4]; 62 g ai/ha): 70; Plant response rating, Waterhemp_RES2 ([4]; 125 g ai/ha): 75; Plant response rating, Waterhemp_RES2 ([4]; 250 g ai/ha): 90; Plant response rating, Waterhemp_RES2 ([4]; 500 g ai/ha): 98; Plant response rating, Rice (rice (Oryza sativa)): 0; Plant response rating, Ducksalad [5]: 0; Plant response rating, Sedge, Umbrella [6]: 0; Plant response rating, Barnyardgrass [7]: 0
COCC(=O)n1cc(C(=O)c2ccccc2)c(-c2cc(Cl)cc(Cl)c2)n1 [Compound 16, 1-[4-benzoyl-3-(3,5-dichlorophenyl)-1H-pyrazol-1-yl]-2-methoxyethanone] | 90 | 95 | 98 | 100 | 100 | 100 | 100 | 0 | 0 | 0 | 0 | 0 | 0 | 0 | 50 | 60 | 90 | 90 | 0 | 50 | Plant response rating, Waterhemp ([1]; Preemergence, 500 g ai/ha): 100; Plant response rating, Barnyardgrass ([2]; Preemergence, 500 g ai/ha): 0; Plant response rating, Oilseed Rape ([3]; Preemergence, 250 g ai/ha): 100; Plant response rating, Oilseed Rape ([3]; Preemergence, 500 g ai/ha): 100; Plant response rating, Waterhemp_RES2 ([4]; 31 g ai/ha): 95; Plant response rating, Waterhemp_RES2 ([4]; 62 g ai/ha): 95; Plant response rating, Waterhemp_RES2 ([4]; 125 g ai/ha): 75; Plant response rating, Waterhemp_RES2 ([4]; 250 g ai/ha): 98; Plant response rating, Waterhemp_RES2 ([4]; 500 g ai/ha): 100; Plant response rating, Rice (rice (Oryza sativa)): 0; Plant response rating, Ducksalad [5]: 0; Plant response rating, Sedge, Umbrella [6]: 0; Plant response rating, Barnyardgrass [7]: 0
